Target: T1, IRAK3 (Homo sapiens, UniProt Q9Y616)
T1 construct: IRAK Endogenous HTRF Degradation Assay; endogenous in cells
T1 sequence (Q9Y616 1-596): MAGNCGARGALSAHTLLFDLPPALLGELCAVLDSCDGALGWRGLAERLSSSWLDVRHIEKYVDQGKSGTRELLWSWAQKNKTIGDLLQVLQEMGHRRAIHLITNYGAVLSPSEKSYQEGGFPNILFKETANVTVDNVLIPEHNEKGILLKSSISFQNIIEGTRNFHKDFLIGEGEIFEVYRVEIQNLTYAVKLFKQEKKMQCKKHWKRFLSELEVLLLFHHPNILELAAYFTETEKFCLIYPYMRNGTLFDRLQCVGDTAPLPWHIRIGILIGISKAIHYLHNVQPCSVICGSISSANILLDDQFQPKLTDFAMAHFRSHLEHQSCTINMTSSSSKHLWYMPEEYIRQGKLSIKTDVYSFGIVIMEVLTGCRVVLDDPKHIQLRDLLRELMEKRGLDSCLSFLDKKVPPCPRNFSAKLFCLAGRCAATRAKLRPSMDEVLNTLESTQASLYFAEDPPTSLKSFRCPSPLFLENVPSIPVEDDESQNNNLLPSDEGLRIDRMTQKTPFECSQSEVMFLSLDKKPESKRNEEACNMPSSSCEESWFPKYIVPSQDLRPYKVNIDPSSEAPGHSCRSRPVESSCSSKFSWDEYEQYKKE
Assay: IRAK3 biochemical binding assay (LanthaScreen Eu Kinase Binding, TR-FRET)
Protocol: Example B3. IRAK3 Biochemical Binding Assay
The LanthaScreen® Eu Kinase Binding assay was performed as described by the vendor (ThermoFisher Scientific Waltham, MA). Briefly, 100× solutions of compound were prepared in DMSO via serial dilution of the 10 mM stock solution in a 384-well reagent plate using 3-fold intervals to achieve final concentrations. 1 μL of the compound dilution series were added to the corresponding wells of a 384-well reagent plate containing 32.3 μL of 1× buffer (50 mM HEPES pH 7.4, […], 1 mM EGTA, 0.01% Brij-35). 5 μL of the buffer diluted compounds were transferred to the corresponding wells of a 384-well assay plate. 5 μL of 3× tracer was transferred to each well of the assay plate for a final tracer concentration of 10 nM. Finally, 5 μL of the 3×Eu-Anti-GST and IRAK3 mix was transferred to each well for a final concentration of 2 nM and 10 nM respectively. Reactions were allowed to incubate for 1 hour at room temperature. TR-FRET signal of the interaction (λex340/λem 665/λem 615) was read at room temperature with a delay time of 100 ρs and an integration time of 200 ρs using an Envision plate reader. Background corrected emission signal ratios at each compound concentration were used to calculate percentage of inhibition (% Inhibition). Plots of % Inhibition versus inhibitor concentrations were fit according to a dose-response equation (Eq. 1) to generate IC50 and Hill slope values using Dotmatics software (Dotmatics, Bishops Stortford, Hertfordshire, England).
Using these assays, IC50, Dmax, EC50, and DC50 values of the following compounds were determined. Dmax is defined as the maximum percent degradation achieved and DC50 is the concentration at which 50% degradation is achieved.

**Q.** Cc1cc(-c2cnc(Nc3cnn([C@H]4CC[C@H](CCN5CCN(c6cccc7c(C8CCC(=O)NC8=O)nn(C)c67)CC5)CC4)c3)c3nccn23)c(F)cc1F (stereo partly drawn) [Compound 117, 3-(7-(4-(2-((trans)-4-(4-((5-(2,4-difluoro-5-methylphenyl)imidazo[1,2-a]pyrazin-8-yl)amino)-1H-pyrazol-1-yl)cyclohexyl)ethyl)piperazin-1-yl)-1-methyl-1H-indazol-3-yl)piperidine-2,6-dione] was tested. Which IC50 did it give?
**A.** 1 nM

**Q.** O=C1CCC(c2ccc(N3CCN(CC[C@H]4CC[C@H](n5cc(Nc6ncc(-c7cnn8c7CCCC8)n7ccnc67)cn5)CC4)CC3)cc2)C(=O)N1 (stereo partly shown) [Compound 118] was tested. Which IC50 did it give?
**A.** 0.1 nM

**Q.** For O=C1CCC(c2ccc(N3CCN(CCN4CCC(n5cc(Nc6ncc(-c7cnn(C8CC8)c7)n7ccnc67)cn5)CC4)CC3)cc2)C(=O)N1 (stereo not shown) [Compound 119, 3-(4-(4-(2-(4-(4-((5-(1-cyclopropyl-1H-pyrazol-4-yl)imidazo[1,2-a]pyrazin-8-yl)amino)-1H-pyrazol-1-yl)piperidin-1-yl)ethyl)piperazin-1-yl)phenyl) piperidine-2,6-dione], which IC50 is on record?
**A.** 1.7 nM

**Q.** Which IC50 does the source give for O=C1CCC(c2ccc(N3CCN(CC[C@H]4CC[C@H](n5cc(Nc6ncc(-c7cn[nH]c7)n7ccnc67)cn5)CC4)CC3)cc2)C(=O)N1 (stereo partly drawn) [Compound 120, 3-(4-(4-(2-((trans)-4-(4-((5-(1H-pyrazol-4-yl)imidazo[1,2-a]pyrazin-8-yl)amino)-1H-pyrazol-1-yl)cyclohexyl)ethyl)piperazin-1-yl)phenyl) piperidine-2,6-dione] here?
**A.** 1.5 nM

— patent US20260216347A1, “Substituted Imidazo-Based Compounds as Ligand Directed Degraders of IRAK3” (Celgene Corporation, priority 2022, published 2026)
